Assay results as given in publication PMC3779154, “Identification of Therapeutic Candidates for Chronic Lymphocytic Leukemia from a Library of Approved Drugs” (PLoS ONE, 2013).
pEC50, pIC50: −log10 of the molar value. Counter-ions that a name gives are not always drawn. Like-named read-outs stand apart in the source and are kept apart here. Starred links: 1 amine or outer side, 2 acyl side, 3 side chain; linkers in the order of their positions; H or OH if unused. Positions of bridges follow the written chain, without caps; N, C: chain ends. Non-standard residues stand in square brackets, D forms with d. Residues, ends and D or L forms follow the SMILES beside them. Chains are numbered I, II in the order given. Actinocin(9to1) = Cc1c2oc3c(C)ccc(C(=O)[*:1])c3nc-2c(C(=O)[*:2])c(N)c1=O; NMeV = CN[C@H](C(=O)O)C(C)C; Sar = CNCC(=O)O

Key:
[1] = system: fresh CLL patient lymphocytes; experiment: cells; settings: Homo sapiens
Procedure: (§1) Cell viability was measured using a luciferase-based ATP quantitation assay (CellTiter-Glo^TM, Promega). The intracellular ATP content indicates the number of viable (i.e. metabolically competent) cells after compound treatment. […] After that, a total of 23 nL of compounds at 8 selected concentrations from the NPC library or positive control (10 mM stock of doxorubicin hydrochloride) in DMSO was transferred to each well of the assay plate using a pintool (Kalypsys, San Diego, CA), and the plates were further incubated at 37 °C with 5% CO2 for 24 hours to allow the reaction. Then 4µL of CellTilter-Glo luminescent substrate mix was added to each well. The plate was incubated at room temperature for 15 minutes. The plates were measured on a ViewLux plate reader (PerkinElmer) with clear filter. […] The test volume of 5,000 cells/4 μL/well was selected as the final assay condition in cell density tests based on the assay performance statistics: signal/background ratio, coefficient of variation and Z’-factor (data not shown).
(§2) Fresh primary cells were also obtained from two unaffected normal donors and seven CLL patients whose blood samples were collected within hours of apheresis and which had not been included in our previous experiments.

[2] = system: lymphocytes from normal donors; experiment: cells; settings: Homo sapiens, Lymphocyte, read-out: IC50 normal
Procedure: (§3) Cell viability was measured using a luciferase-based ATP quantitation assay (CellTiter-Glo^TM, Promega). The intracellular ATP content indicates the number of viable (i.e. metabolically competent) cells after compound treatment. Four µL of CLL cells resuspended in AIM medium at 1,330,000 cells/ml, were dispensed into each well of white, solid bottom, 1536-well tissue culture–treated plates using a Multidrop-Combi dispenser and incubated overnight. After that, a total of 23 nL of compounds at 8 selected concentrations from the NPC library or positive control (10 mM stock of doxorubicin hydrochloride) in DMSO was transferred to each well of the assay plate using a pintool (Kalypsys, San Diego, CA), and the plates were further incubated at 37 °C with 5% CO2 for 24 hours to allow the reaction. Then 4µL of CellTilter-Glo luminescent substrate mix was added to each well. The plate was incubated at room temperature for 15 minutes. The plates were measured on a ViewLux plate reader (PerkinElmer) with clear filter.
(§4) These compounds were then re-tested in the cell viability assay using 12 point titrations with concentration ranging from 57 µM to 0.3 nM with 1:3 dilution.
as §2

[3] = system: fresh CLL patient lymphocytes
Procedure: as §1, §2

[4] = system: lymphocytes from normal donors; settings: for pIC50: read-out: IC50 normal, average of 2 normal donors, fresh, Figure 5; for difference in efficacy between CLL and unaffected donor samples: at 19 µM and 57 µM, the two highest testing concentrations; for potency shift between CLL and normal donor samples: fresh cells, normal IC50 vs CLL IC50
Procedure: as §3, §4, §2

[5] = system: ME-180 human cervical carcinoma cell line; experiment: Cell viability assay, ME-180 cells (NPC library profiling)
Text: Based on the definition of actives, inactives and inconclusive mentioned above, compounds were further clustered hierarchically using Spotfire DecisionSite 8.2 (Spotfire Inc., Cambridge, MA) based on their activity outcomes from the primary screen across a wide variety of cell viability assays against different cell lines or primary patient cells. Each compound was converted into an integer which represents its activity outcome in each cell viability assay. […] Integer 2 represents compounds in “inconclusive” category which is corresponding to light red in the heat map. […] Compounds not tested in the assay were labeled as 4 and shown as grey in the heat map.

caspase-3/7 = experiment: Caspase-Glo 3/7 activation assay in CLL samples; assay type: cell-based, human; settings: read-out: EC50 caspase-3/7 activity
Procedure: The effect of selected compounds on caspase activity was measured using a homogeneous luminescent method (Caspase-Glo® 3/7, 8 and 9 kits, Promega, Madison, WI). Briefly in this assay, caspase induced by cells cleaves a pro-luciferin substrate where a tetrapeptide caspase substrate - DEVD (asp-glu-val-asp) is cleaved to free aminoluciferin, which can be used as a substrate by luciferase yielding a bioluminescent signal. The luminescent signal is proportional to the amount of caspase activity present in the cells. Cells were dispensed in culture medium at 5,000/cells/5uL/well in 1536-well white/solid-bottom assay plates. The cells were incubated for overnight at 37°C. The compounds (23nL/well) were added via the pin tool. The treated cells were further incubated for 24 h at 37°C, followed by the addition of the Caspase-Glo 3/7, 8 or 9 reagents at 5uL/well. After a 30 min incubation at room temperature, the luminescence intensity of the assay plates was measured using a ViewLux Plate Reader. The caspase activity was normalized to DMSO control.

primary CLL cells = experiment: qHTS luminescent ATP cell viability assay (CellTiter-Glo), primary screen, frozen CLL patient cells; assay type: cell-based, human; settings: for Emax / pIC50: Homo sapiens, CLL cell; for Emax: CLL cells, 24 h, normalized to doxorubicin control, read-out: efficacy (maximal response); for cytotoxicity across CLL cell samples: six CLL patient samples, primary screen
Text: Lymphocytes from 13 CLL treatment naïve patients (Table 1 ) and 5 normal donors were obtained by lymphapheresis with written informed consent and isolated by gradient centrifugation using Lymphocyte Separation Medium (MP Biomedicals, Solon, OH) and used fresh or cryopreserved in liquid nitrogen in 10% dimethyl sulfoxide, 90% FCS. CLL patients were consented on the institutional review board (IRB) approved at the National Heart, Lung, and Blood Institute (NHLBI, Office of Clinical Affairs, Bldg 10, CRC. Room 6-5140, Bethesda, Maryland 20892-1608) with protocol 04-H-0012 and samples from normal donors were collected by the Department of Transfusion Medicine, National Institutes of Health (NIH). This study was approved by the IRB mentioned above. Fresh cells were temporally placed on ice and plated for screening within 3 hrs of apheresis. Frozen cells were thawed the night before the assay and incubated in T175 flask in AIM V medium to recover overnight. Analysis of IGHV gene status was performed as described. CLL samples were cultured in AIM V serum free medium (Gibco-Invitrogen, Long Island, NY).
Compound formatting and qHTS were performed as described previously. The final concentration of the NPC compounds in the 4 µL assay volume ranged from 57 µM to 0.7 nM in 1:5 dilution steps. The positive control plate format was as follows: columns 1 and 3, DMSO only; column 2, doxorubicin, a known cytotoxic chemotherapy agent in a 1:2 dilution series from 10 µM to 5 nM in DMSO; and column 4, doxorubicin at 10 µM in DMSO.
To determine compound activity in the qHTS assay, the concentration-response data for each sample was plotted and modeled by a four parameter logistic fit yielding IC50 and efficacy (maximal response) values as previously described. Data normalization and curve fitting were performed using in-house informatics tools. Briefly, raw plate reads for each titration point were first normalized relative to the positive control compound (100%) and DMSO-only wells (basal, 0%), and then corrected by applying a pattern correction algorithm using compound-free control plates (i.e., DMSO-only plates) at the beginning and end of the NPC compound plate stack. […] In brief, Class 1.1 and 1.2 were the highest-confidence complete CRCs containing upper and lower asymptotes with efficacies ≥ 80% and < 80%, respectively. Class 2.1 and 2.2 were incomplete CRCs having only one asymptote with efficacy ≥ 80% and < 80%, respectively.
Compounds from the primary qHTS screen were further classified into three categories according to the quality of curve fit and efficacy.

[6] = Lymphocyte, 24 h, confirmation assay, fresh CLL samples, Table S1
[7] = Lymphocyte, read-out: IC50 CLL, average of cells from 7 CLL patients, fresh, Figure 5
[8] = read-out: IC50 CLL, average of cells from 7 CLL patients, fresh, Figure 5
[9] = confirmation assay, fresh CLL samples, 24 h, Table S1

Compound: O=C1c2c(O)ccc(O)c2C(=O)c2c(NCCNCCO)ccc(NCCNCCO)c21 [mitoxantrone]
- pIC50 ([1]; CLL cell, read-out: potency, comparable cell killing against CLL cells and normal lymphocytes): 5.22
- pIC50 [1, 6]: ~5.27
- pIC50 [1, 7]: 5.14
- pIC50 [2]: 5.15

Compound: Nc1nc(F)nc2c1ncn2[C@@H]1O[C@H](CO)[C@@H](O)[C@@H]1O [fludarabine]
- pIC50 [3, 8]: 4.91
- pIC50 ([3]; read-out: potency, comparable cell killing against CLL cells and normal lymphocytes): 4.92
- pIC50 [4]: 5.03

Compound: Cc1cc(-c2ccc(/N=N/c3c(S(=O)(=O)O)cc4cc(S(=O)(=O)O)cc(N)c4c3O)c(C)c2)ccc1/N=N/c1c(S(=O)(=O)O)cc2cc(S(=O)(=O)O)cc(N)c2c1O [trypan blue]
- cytotoxicity in ME-180 cells [5]: prominent cytotoxicity

Compound: ivermectin
- cytotoxicity in ME-180 cells [5]: prominent cytotoxicity

Compound: COc1cc([C@@H]2c3cc4c(cc3[C@H](O)[C@H]3COC(=O)[C@H]23)OCO4)cc(OC)c1OC [podofilox]
- efficacy (cytotoxicity) ([3]; human): > 60%
- pIC50 [3, 8]: > 6.00
- pIC50 ([3]; read-out: IC50 CLL, average of cells from 7 CLL patients, fresh, Figure 5, listed as Podofilox): 7.22
- pEC50 (caspase-3/7; Homo sapiens, 24 h): > 7.00
- cytotoxicity on lymphocytes derived from unaffected donors [4]: almost no cytotoxicity
- difference in efficacy between CLL and unaffected donor samples [4]: over 40%
- decreased efficacy against B-cells from normal donors ([4]; at the testing concentration of 1.7 µM): approximately 40%
- potency shift between CLL and normal donor samples [4]: about 3 fold
- pIC50 [2]: 6.82

Compound: C[C@H]1CC[C@]2(NC1)O[C@H]1C[C@H]3[C@@H]4CC[C@H]5C[C@@H](O[C@@H]6O[C@H](CO)[C@H](O[C@@H]7O[C@H](CO)[C@@H](O)[C@H](O[C@@H]8OC[C@@H](O)[C@H](O)[C@H]8O)[C@H]7O[C@@H]7O[C@H](CO)[C@@H](O)[C@H](O)[C@H]7O)[C@H](O)[C@H]6O)CC[C@]5(C)[C@H]4CC[C@]3(C)[C@H]1[C@@H]2C [tomatine]
- cytotoxicity in ME-180 cells [5]: prominent cytotoxicity

Compound: C[n+]1cc2c3c(ccc2c2ccc4cc5c(cc4c21)OCO5)OCO3 [sanguinarine]
- cytotoxicity in ME-180 cells [5]: prominent cytotoxicity

Compound: Cc1c2oc3c(C)ccc(C(=O)N[C@@H]4C(=O)N[C@H](C(C)C)C(=O)N5CCC[C@H]5C(=O)N(C)CC(=O)N(C)[C@@H](C(C)C)C(=O)O[C@@H]4C)c3nc-2c(C(=O)N[C@@H]2C(=O)N[C@H](C(C)C)C(=O)N3CCC[C@H]3C(=O)N(C)CC(=O)N(C)[C@@H](C(C)C)C(=O)O[C@@H]2C)c(N)c1=O [actinomycin D] (I: T[dV]P[Sar][NMeV] / II: T[dV]P[Sar][NMeV]; ester I:1-I:C, II:1-II:C; linker I:N-II:N via Actinocin(9to1))
- pIC50 ([1]; Lymphocyte, 24 h): > 6.00

Compound: CC[C@@]1(O)C[C@H](O[C@H]2C[C@H](N(C)C)[C@H](O[C@H]3C[C@H](O)[C@H](O[C@H]4CCC(=O)[C@H](C)O4)[C@H](C)O3)[C@H](C)O2)c2c(cc3c(c2O)C(=O)c2c(O)cccc2C3=O)[C@H]1C(=O)OC [aclarubicin hydrochloride]
- pIC50 ([1]; Lymphocyte, 24 h): > 6.00

Compound: CC[C@]1(O)C[C@@H]2CN(CCc3c([nH]c4ccccc34)[C@@](C(=O)OC)(c3cc4c(cc3OC)N(C)[C@H]3[C@@](O)(C(=O)OC)[C@H](OC(C)=O)[C@]5(CC)C=CCN6CC[C@]43[C@@H]65)C2)C1 [vinblastine]
- fold more potent in CLL sample #4808 than #4399 (primary CLL cells; CLL sample #4808 vs #4399): > 100 fold
- Emax (primary CLL cells): > 80%

Compound: CO[C@@H]1[C@H](O)C[C@@H](O[C@@H]2C[C@H](Oc3cc4cc5c(c(O)c4c(O)c3C)C(=O)[C@@H](O[C@H]3C[C@@H](O[C@H]4C[C@@H](O[C@H]6C[C@](C)(O)[C@@H](OC(C)=O)[C@H](C)O6)[C@H](O)[C@@H](C)O4)[C@H](O)[C@@H](C)O3)[C@H]([C@H](OC)C(=O)[C@@H](O)[C@@H](C)O)C5)O[C@H](C)[C@@H]2OC(C)=O)O[C@@H]1C [chromomycin A3]
- pIC50 ([1]; Lymphocyte, 24 h): > 6.00

Compound: CC(=O)[C@]1(O)Cc2c(O)c3c(c(O)c2[C@@H](O[C@H]2C[C@H](N)[C@H](O)[C@H](C)O2)C1)C(=O)c1ccccc1C3=O [idarubicin]
- pIC50 (primary CLL cells; CLL patient #4705): 5.49
- pIC50 (primary CLL cells; CLL patient #4789): 7.00
- pIC50 (primary CLL cells; CLL patient #4808): 7.00
- potency shift (primary CLL cells; patient #4705 compared to #4789 and #4808): 32 fold
- pIC50 [1, 6]: > 6.00

Compound: CC(=O)[O][Hg][c]1ccccc1 [phenylmercuric acetate]
- cytotoxicity in ME-180 cells [5]: prominent cytotoxicity

Compound: Cn1c(CCCC(=O)O)nc2cc(N(CCCl)CCCl)ccc21 [bendamustine]
- pIC50 ([1]; Lymphocyte, 24 h): 4.52 to 4.92

Compound: CN(C)c1ccc(C(=C2C=CC(=[N+](C)C)C=C2)c2c(O)c(S(=O)(=O)[O-])cc3cc(S(=O)(=O)[O-])ccc23)cc1.[Na+] [lissamine green B]
- cytotoxicity in ME-180 cells [5]: prominent cytotoxicity

Compound: COc1cccc2c1C(=O)c1c(O)c3c(c(O)c1C2=O)C[C@@](O)(C(=O)CO)C[C@@H]3O[C@H]1C[C@H](N)[C@H](O)[C@H](C)O1 [doxorubicin]
- pIC50 [1, 7]: 5.35
- potency shift between CLL and normal donor samples [4]: 3 fold
- pIC50 [2]: 4.84

Compound: COc1cc([C@@H]2c3cc4c(cc3[C@@H](O[C@@H]3O[C@@H]5CO[C@@H](c6cccs6)O[C@H]5[C@H](O)[C@H]3O)[C@H]3COC(=O)[C@H]23)OCO4)cc(OC)c1O [teniposide]
- Emax (primary CLL cells): < 80%

Compound: CC(C)C[C@H](NC(=O)[C@H](Cc1ccccc1)NC(=O)c1cnccn1)B(O)O [bortezomib]
- cytotoxicity across CLL cell samples (primary CLL cells): cytotoxicity in all CLL cell samples at similar concentrations
- pIC50 [1, 6]: > 6.00

Compound: CC[C@]1(O)C[C@H]2CN(CCc3c([nH]c4ccccc34)[C@@](C(=O)OC)(c3cc4c(cc3OC)N(C=O)[C@H]3[C@@](O)(C(=O)OC)[C@H](OC(C)=O)[C@]5(CC)C=CCN6CC[C@]43[C@@H]65)C2)C1 [vincristine]
- pIC50 [3, 9]: > 6.00

Compound: plicamycin
- pIC50 [3, 9]: > 6.00
- pIC50 [3, 8]: 6.12
- pEC50 (caspase-3/7; CLL samples, 24 hours): 6.37
- difference in efficacy between CLL and unaffected donor samples [4]: over 40%
- potency shift between CLL and normal donor samples [4]: about 3 fold
- pIC50 [4]: 6.08
- decreased efficacy to normal B cells ([4]; versus CLL cells): over 40%

Compound: COc1cc2c(cc1O)CCN[C@]21CS[C@@H]2c3c(OC(C)=O)c(C)c4c(c3[C@H](COC1=O)N1[C@@H]2[C@H]2c3c(cc(C)c(OC)c3O)C[C@@H]([C@@H]1O)N2C)OCO4 [trabectedin]
- cytotoxicity across CLL cell samples (primary CLL cells): cytotoxicity in all CLL cell samples at similar concentrations
- pIC50 [1, 6]: > 6.00

Compound: COC(=O)C[C@](O)(CCCC(C)(C)O)C(=O)O[C@@H]1C(OC)=C[C@]23CCCN2CCc2cc4c(cc2[C@H]13)OCO4 [omacetaxine mepesuccinate]
- pIC50 [1, 6]: > 6.00
